Experimental data: ChEMBL document CHEMBL5136972, “Targeting SARS-CoV-2 Proteases and Polymerase for COVID-19 Treatment: State of the Art and Future Opportunities” (J Med Chem, 2022)

Biological target: Replicase polyprotein 1ab (Severe acute respiratory syndrome coronavirus 2, UniProt P0DTD1)

## Cc1cc(C(=O)N[C@@H](C)C(=O)N[C@H](C(=O)N[C@@H](CC(C)C)C(=O)N[C@H](/C=C/C(=O)OCc2ccccc2)C[C@@H]2CCNC2=O)C(C)C)no1
  Ki: 9 µM
